Laboratory results from paper PMC11191095, “QSAR Reveals Decreased Lipophilicity of Polar Residues Determines the Selectivity of Antimicrobial Peptide Activity” (ACS Omega, 2024).
Where a SMILES comes first, the peptide text is derived from it.

Tests used:
Experiment in all cases: microbe, parasite or virus in culture
C. glabrata NCPF 8018 = type: cell-based; details: NCPF 8018, 20 h
Description: (§1) Antimicrobial activity was evaluated against a panel of 18 pathogens consisting of eight Gram-negative strains (E. coli NCTC 12923, E. coli LEC001, Pseudomonas aeruginosa PAO1, P. aeruginosa NCTC 13437, Acinetobacter baumannii ATCC 17978, A. baumannii AYE, Klebsiella pneumoniae M6, K. pneumoniae NCTC 13368), four Gram-positive strains (Staphylococcus aureus ATCC 9144, S. aureus NCTC 13616, S. aureus USA300, S. aureus 1199B) and six fungi (Candida auris TDG 1912, C. albicans NCPF 8018, C. krusei NCPF 3876, C. tropicalis NCPF 8760, and C. parapsilosis NCPF 3209). Pathogens were grown in noncation adjusted Mueller Hinton broth (MHB, for bacteria) or Roswell Park Memorial Institute (RPMI 1640) + 2% glucose (for fungi) at 37 °C with 180 rpm shaking and maintained on solid media (tryptic soy agar for bacteria and Sabouraud dextrose agar for fungi). For an antibiogram, see Suppl.
(§2) The 46 peptides were serially diluted (128 to 2 μg/mL) in media down polypropylene 96-well plates. Bacteria or fungi, diluted from an overnight culture to an OD600 of 0.01, were added to the serially diluted peptides at a 1:1 ratio resulting in a starting cell density of ∼5 × 10^5 CFU/mL. Plates were incubated at 37 °C for 20 h, and the optical density was determined spectrophotometrically at 600 nm. Minimum inhibition concentrations (MICs) were determined from a minimum of three biological repeats and are reported in μg/mL as well as μM. […] The MIC50 or MIC90 is defined as the lowest peptide concentration that results in 50% or 90% growth inhibition over a 20 h treatment period, respectively.

C. krusei NCPF 3876 = type: cell-based; details: NCPF 3876, 20 h
Description: as §1, §2

[1] = tested on: C. parapsilosis NCPF 3209; type: cell-based; details: NCPF 3209, 20 h
Description: as §1, §2

C. tropicalis NCPF 8760 = type: cell-based; details: NCPF 8760, 20 h
Description: as §1, §2

C. albicans NCPF 3281 = type: cell-based; details: NCPF 3281, 20 h
Description: as §1, §2

E. coli NCTC 12923 = type: cell-based, Escherichia coli; details: NCTC 12923, 20 h
Description: as §1, §2

[2] = tested on: S. aureus (MSSA) ATCC 9144; type: cell-based, Staphylococcus aureus; details: ATCC 9144, 20 h
Description: as §1, §2

A. baumannii AYE = type: cell-based, Acinetobacter baumannii; details: AYE, 20 h
Description: as §1, §2

A. baumannii ATCC 17978 = type: cell-based, Acinetobacter baumannii; details: ATCC 17978, 20 h
Description: as §1, §2

| SMILES | Modal MIC50 (C. glabrata NCPF 8018) [µM] | Modal MIC90 (C. glabrata NCPF 8018) [µM] | Modal MIC50 (C. krusei NCPF 3876) [µM] | Modal MIC90 (C. krusei NCPF 3876) [µM] | Modal MIC50 [1] [µM] | Modal MIC90 [1] [µM] | Modal MIC50 (C. tropicalis NCPF 8760) [µM] | Modal MIC90 (C. tropicalis NCPF 8760) [µM] | Modal MIC50 (C. albicans NCPF 3281) [µM] | Modal MIC90 (C. albicans NCPF 3281) [µM] | Modal MIC (E. coli NCTC 12923) [µM] | Modal MIC [2] [µM] | Modal MIC (A. baumannii AYE) [µM] | Modal MIC (A. baumannii ATCC 17978) [µM] |
| --- | --- | --- | --- | --- | --- | --- | --- | --- | --- | --- | --- | --- | --- | --- |
| CC[C@H](C)[C@H](NC(=O)CNC(=O)[C@H](CCCCN)NC(=O)[C@H](Cc1c[nH]c2ccccc12)NC(=O)[C@H](Cc1c[nH]c2ccccc12)NC(=O)[C@@H](N)Cc1c[nH]c2ccccc12)C(=O)N[C@@H](CCCNC(=N)N)C(=O)NCC(=O)N[C@@H](Cc1ccc(O)cc1)C(=O)N[C@@H](CCCCN)C(=O)NCC(=O)NCC(=O)N[C@@H](Cc1ccc(O)cc1)C(=O)N[C@@H](CCCCN)C(=O)NCC(=O)N[C@@H](C)C(=O)N[C@@H](Cc1ccccc1)C(=O)N[C@@H](CCCCN)C(=O)N[C@@H](CCC(N)=O)C(=O)N[C@H](C(=O)N[C@@H](CCCCN)C(=O)N[C@@H](Cc1ccc(O)cc1)C(N)=O)[C@@H](C)O [W3(Os-C)a] (H-WWWKGIRGYKGGYKGAFKQTKY-NH2) | > 46.9 | > 46.9 | > 46.9 | > 46.9 | > 46.9 | > 46.9 | > 46.9 | > 46.9 | > 46.9 | > 46.9 | 23.5 | 11.7 | 5.9 | 11.7 |
| CC[C@H](C)[C@H](NC(=O)CNC(=O)[C@H](CCCNC(=N)N)NC(=O)[C@@H](N)Cc1c[nH]c2ccccc12)C(=O)N[C@@H](CCCNC(=N)N)C(=O)NCC(=O)N[C@@H](Cc1ccc(O)cc1)C(=O)N[C@@H](CCCCN)C(=O)NCC(=O)NCC(=O)N[C@@H](Cc1ccc(O)cc1)C(=O)N[C@H](C(=O)NCC(=O)N[C@@H](CCCNC(=N)N)C(=O)N[C@@H](Cc1ccccc1)C(=O)N[C@@H](CCCCN)C(=O)N[C@@H](CCC(N)=O)C(=O)N[C@H](C(=O)N[C@@H](CCCCN)C(=O)N[C@@H](Cc1ccc(O)cc1)C(N)=O)[C@@H](C)O)[C@@H](C)O [W-OmB-Ca] (H-WRGIRGYKGGYTGRFKQTKY-NH2) | > 52.5 | > 52.5 | > 52.5 | > 52.5 | > 52.5 | > 52.5 | > 52.5 | > 52.5 | > 52.5 | > 52.5 | 52.5 | 52.5 | 13.1 | 26.2 |
| CC[C@H](C)[C@H](NC(=O)CNC(=O)[C@H](CO)NC(=O)[C@@H](N)Cc1c[nH]c2ccccc12)C(=O)N[C@@H](CCCNC(=N)N)C(=O)NCC(=O)N[C@@H](Cc1ccc(O)cc1)C(=O)N[C@@H](CCCCN)C(=O)NCC(=O)NCC(=O)N[C@@H](Cc1ccc(O)cc1)C(=O)N[C@@H](CCCCN)C(=O)NCC(=O)N[C@@H](CC(C)C)C(=O)N[C@@H](Cc1ccccc1)C(=O)N[C@@H](CCCCN)C(=O)N[C@@H](CCC(N)=O)C(=O)N[C@H](C(=O)N[C@@H](CC(N)=O)C(=O)N[C@@H](Cc1ccc(O)cc1)C(N)=O)[C@@H](C)O [W-OmC-Ca] (H-WSGIRGYKGGYKGLFKQTNY-NH2) | > 54.3 | > 54.3 | > 54.3 | > 54.3 | > 54.3 | > 54.3 | > 54.3 | > 54.3 | > 54.3 | > 54.3 | 54.3 | 54.3 | 54.3 | 54.3 |
